These results are taken from US20110287110A1, “COMBINATION CANCER TREATMENT” (priority 2010, published 2011).

In assay [1] the test system is Ctr1. The conditions noted are these: cells with Ctr1 deleted; Ishida et al. 2002, Larson et al. 2009; cited from earlier work.
Assay [2] concerns WT and Ctr1−/− MEFs. As to the kind of experiment: Cisplatin uptake/accumulation (intracellular platinum by ICP-AES) in MEFs. The assay is classed as cell-based, mouse. The conditions noted are these: cisplatin 100 μg/mL. The method, then:
(§1) Bladder cell lines (5637, J82, RT4, MB49, MBT2, and NBT2) were kindly provided by Brant A. Inman, MD. J82, NBT2, MB49, and MBT2 cells were cultured in Dulbecco's modified Eagle's medium (DMEM) containing 10% fetal bovine serum (FBS) and 1% antibiotic-antimycotic (AA; Invitrogen). RT4 and 5637 cells were cultured in McCoy's 5A modified medium and RPMI-1640 medium, respectively, containing 10% FBS and 1% AA. The WT and Ctr1−/− MEF cell lines as well as the Ctr1 antibody were kindly provided by Dennis J. Thiele, PhD. MEF cells were cultured in DMEM containing 20% FBS, 1% L-Glutamine-Penicillin-Streptomycin (Sigma), 1% sodium pyruvate, 1% nonessential amino acids, 0.5 mg/L uridine (Sigma), and 55 μM 2-mercaptoethanol. All cells were maintained at 37° C. and at 5% CO2.
WT and Ctr1−/− MEFs were plated into T175 flasks and treated with concurrent hyperthermia (42° C.) or normothermia (37° C.) and cisplatin (100 μg/mL; APP Pharmaceuticals; 50 mg/50 mL) for 1 hour. Following this 1 hour incubation, cells were incubated with cisplatin for an additional hour at 37° C. Cells were then washed twice with PBS and harvested into 1 mL of 3N HCl and 10% TCA. Samples were digested at 70° C. for 18 hours and centrifuged at 20,800×g for 5 minutes. The supernatants were collected, and intracellular platinum accumulation was measured using inductively coupled plasma atomic emission spectroscopy (ICP-AES) at the EPA, Chapel Hill, N.C.

The subject of assay [3] is WT and Ctr1−/− mouse embryonic fibroblasts (MEFs). Nature of the assay: Clonogenic survival assay, sensitivity to cisplatin in WT and Ctr1−/− MEFs. The settings on record: cisplatin 1, 5, or 10 μM for 2 hours, FIG. 2. The assay is classed as cell-based. The method, then:
as §1
Basal Ctr1 protein expression was assessed using western blot in WT and Ctr1−/− mouse embryonic fibroblasts (MEFs). Sensitivity to cisplatin was assessed using a clonogenic survival assay. Briefly, a known density of cells was plated in 6-well plates. Approximately 18-24 hours after plating, cells were exposed to cisplatin (1, 5, or 10 μM; APP Pharmaceuticals; 50 mg/50 mL) or saline for 2 hours. […] Cells were incubated until colonies (50+ cells) were detected (7-14 days). Colonies were then stained using crystal violet and counted.

The test system of assay [4] is bladder cancer cell lines (5637, J82, RT4, MB49, MBT2, NBT2). As to the kind of experiment: Clonogenic survival assay, sensitivity to cisplatin in bladder cancer cell lines. The conditions noted are these: cells expressing higher basal levels of Ctr1 (5637 and MBT2) vs other lines; cisplatin 1, 5, 10, or 50 μM for 2 hours; FIG. 1. The assay is classed as cell-based, human and rodent. The method, then:
as §1, with “All cells were maintained at 37° C. and at 5% CO2.” left out
Basal Ctr1 protein expression was assessed using Western blot in several different human (5637, J82, and RT4) and rodent (MB49, MBT2, and NBT2) bladder cancer cell lines. […] Samples were centrifuged at 12,000 rpm, and 100 μg of protein was separated using 4-20% SDS-PAGE, transferred to PVDF membrane and detected by chemiluminescence using anti-Ctr1 antibody (1:1000; kindly provided by Dennis J. Thiele, PhD) followed by anti-rabbit HRP antibody (1:2000; Bio-Rad). Sensitivity to cisplatin was assessed using a clonogenic survival assay. […] Cells were incubated until colonies (50+ cells) were detected (7-14 days). Colonies were then stained using crystal violet and counted.

For assay [5], the system named is WT and Ctr1−/− MEFs. As to the kind of experiment: Platinum-DNA adduct formation (immunofluorescence) in MEFs. The settings on record: WT compared to Ctr1−/− cells, particularly following hyperthermia; 50 μg/mL cisplatin; FIG. 4. The assay is classed as cell-based, mouse. The method, then: as §1
WT and Ctr1−/− MEFs were plated on coverslips (80,000-90,000 cells) in 6-well plates. Approximately 24-48 hours after plating, cells were treated with or without concurrent mild hyperthermia (42° C.) or normothermia (37° C.) and 50 μg/mL cisplatin (APP Pharmaceuticals; 50 mg/50 mL) for 1 hour. Following this initial 1 hour treatment, cells were incubated for 3 additional hours at 37° C. Following treatment, platinum-DNA adducts were stained using immunofluorescence. […] Cells were imaged using a Zeiss Axio Imager widefield fluorescence microscope (Carl Zeiss MicroImaging).

With `N.N.[Cl][Pt][Cl]` [cisplatin, cis-diamminedichloroplatinum (II)], the Cisplatin resistance result in assay [1] is recorded as “increased”. The Cisplatin uptake result in assay [1] is “decreased”. In assay [2] (Ctr1−/− cells, hyperthermia 42° C. vs normothermia 37° C.), the “Further increase in platinum uptake after hyperthermia” value is given as “not observed”. Further, the “Platinum levels (intracellular platinum accumulation)” value in assay [2] (WT cells compared to Ctr1−/− cells, with and without hyperthermia (42° C.), FIG. 3) is “Higher platinum levels”. The “Platinum uptake after hyperthermia” value in assay [2] (WT cells, hyperthermia 42° C. vs normothermia 37° C.) is on record as “further increase”. Besides, the “Sensitivity to cisplatin (clonogenic survival)” value in assay [3] (Ctr1−/− MEFs (do not express Ctr1)) is listed as “more resistant”; in assay [3] (WT MEFs (higher basal Ctr1)) it was “more sensitive”; in assay [4], “more sensitive”. Besides, in assay [5], the “Percentages of adduct-positive cells and adduct formation” value was “Higher”.
